This is an account of results in patent publication EP1494749B1, “PROCESS FOR PREPARATION OF PHARMACEUTICAL COMPOSITION CONTAINING ANTIRETROVIRAL PROTEASE INHIBITOR WITH IMPROVED BIOAVAILABILITY” (Cadila Pharmaceuticals Limited, priority 2002, dated 2003).

The conditions of data set [1]: in vivo; cited from earlier work.
A further data set is described as follows: clinical. The conditions noted are these: human, in vivo. The protocol:
2. Kit In a further aspect, the present invention provides a kit comprising one or more pharmaceutically acceptable doses of an antiretroviral protease inhibitor as defined above and one or more pharmaceutically acceptable doses of piperine or an isomer thereof. […] However, the scope of this invention is not limited by them. […] Nelfinavir i) Two tablets each containing 250 mg of Nelfinavir and a tablet containing 20 mg of piperine. ii) Two tablets each containing 250 mg of Nelfinavir and two tablets each containing 15 mg of piperine. Saquinavir i) Three capsules each containing 200 mg of Saquinavir and three tablets each containing 5 mg of piperine. ii) Four capsules each containing 200 mg of Saquinavir and a tablets containing 20 mg of piperine. 3. The following are Examples of excipients (i.e. other than piperine) which can be used to prepare pharmaceutical compositions of the present invention. However, the scope of this invention is not limited by them. Saquinavir : • Capsule: medium chain mono- and diglycerides, povidone and dl-alpha tocopherol. […] 4. […] However, the scope of this invention is not limited by them. […] 5.

As usually defined, the Tmax is the time at which the peak concentration occurs. For `CC(C)(C)NC(=O)[C@@H]1CN(Cc2cccnc2)CCN1C[C@@H](O)C[C@@H](Cc1ccccc1)C(=O)N[C@H]1c2ccccc2C[C@H]1O` [Indinavir], in data set [1], the “reduction in AUC” value is 77% ± 8%. Also, the Tmax in “clinical” is 1.58 h.
